# Target: T1, microsomal h-COX2 (Homo sapiens, UniProt P35354)
# T1 construct: made in house; host or cells: baculovirus infected SF9 cells (microsomal preparation)
# T1 sequence (P35354 18-604): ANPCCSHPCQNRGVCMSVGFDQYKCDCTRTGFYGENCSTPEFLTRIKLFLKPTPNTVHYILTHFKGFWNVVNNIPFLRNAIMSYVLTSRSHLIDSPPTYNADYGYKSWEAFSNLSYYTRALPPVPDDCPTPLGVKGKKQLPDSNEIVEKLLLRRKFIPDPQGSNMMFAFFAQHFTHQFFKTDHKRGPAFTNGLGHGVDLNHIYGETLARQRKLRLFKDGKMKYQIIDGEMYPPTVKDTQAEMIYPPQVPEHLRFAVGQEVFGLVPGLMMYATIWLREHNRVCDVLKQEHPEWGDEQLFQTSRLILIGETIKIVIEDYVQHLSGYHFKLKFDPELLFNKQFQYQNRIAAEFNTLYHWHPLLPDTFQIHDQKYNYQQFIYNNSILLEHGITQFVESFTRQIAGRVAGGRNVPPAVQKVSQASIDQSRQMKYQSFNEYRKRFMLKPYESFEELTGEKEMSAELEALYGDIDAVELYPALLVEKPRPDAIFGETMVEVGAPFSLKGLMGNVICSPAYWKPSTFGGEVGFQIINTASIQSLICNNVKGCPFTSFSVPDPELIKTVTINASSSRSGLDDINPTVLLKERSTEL
# Assay: Microsomal assay: inhibitory activity against microsomal h-COX2
# Type: biochemical
# Details: microsomal preparation from baculovirus infected SF9 cells; 1 hour incubation with compound; 0.1 μM arachidonic acid, 10 minutes; PGE2 by EIA; read-out: IC50 values for inhibition of COX-2
# Procedure: Biological Data Microsomal Assay
# Inhibitory activity against microsomal h-COX2 was assessed against a microsomal preparation from baculovirus infected SF9 cells. An aliquot of microsomal preparation was thawed slowly on ice and a 1/40,000 dilution prepared from it into the assay buffer (sterile water, degassed with argon containing 100 mM HEPES (pH 7.4), 10 mM EDTA (pH7.4), 1 mM phenol, 1 mM reduced glutathione, 20 mg/ml gelatin and 0.001 mM Hematin). Once diluted the enzyme solution was then sonicated for 5 seconds (Branson sonicator, setting 4, 1 cm tip) to ensure a homogeneous suspension. 155 μl enzyme solution was then added to each well of a 96-well microtitre plate containing either 5 μl test compound (40× required test concentration) or 5 μl DMSO for controls. Plates were then mixed and incubated at room temperature for 1 hour. Following the incubation period, 40 μl of 0.5 μM arachidonic acid was added to each well to give a final concentration of 0.1 μM. Plates were then mixed and incubated for exactly 10 minutes (room temperature) prior to addition of 25 μl 1M HCl (hydrochloric acid) to each well to stop the reaction. 25 μl of 1M NaOH (sodium hydroxide) was then added to each well to neutralise the solution prior to determination of PGE2 levels by enzyme immunoassay (EIA).
row,Compound,IC50 [nM]
1,"Cc1cc(NC2CCCC2)nc(-c2ccc(S(C)(=O)=O)cc2)c1 [Example 1, N-Cyclopentyl-4-methyl-6-[4-(methylsulfonyl)phenyl]pyridine-2-amine]",≤ 500
2,"Cc1cc(OCc2ccccc2)nc(-c2ccc(S(C)(=O)=O)cc2)c1 [Example 2, 2-Benzyloxy-4-methyl-6-[4-(methylsulfonyl)phenyl]pyridine]",≤ 500
3,"Cc1cc(-c2ccc(S(C)(=O)=O)cc2)nc(N(C)Cc2ccccc2)c1 [Example 3, N-Benzyl-N-methyl-4-methyl-6-[4-(methylsulfonyl)phenyl]pyridine-2-amine]",≤ 500
4,Cc1cc(NCc2ccc(Cl)cc2)nc(-c2ccc(S(C)(=O)=O)cc2)c1 [Example 4],≤ 500
5,CN(Cc1ccccc1)c1cc(C(F)(F)F)cc(-c2ccc(S(C)(=O)=O)cc2)n1 [Example 5],≤ 500
6,CS(=O)(=O)c1ccc(-c2cc(C(F)(F)F)cc(NCc3ccco3)n2)cc1 [Example 6],≤ 500
7,Cc1cc(NCc2ccccc2)nc(-c2ccc(S(C)(=O)=O)cc2)c1 [Example 7],≤ 500
8,CS(=O)(=O)c1ccc(-c2cc(C(F)(F)F)cc(NCC3CCCCC3)n2)cc1 [Example 8],≤ 500
9,COc1ccc(Nc2cc(C)cc(-c3ccc(S(C)(=O)=O)cc3)n2)cc1 [Example 9],≤ 500
10,Cc1cc(OCC(C)C)nc(-c2ccc(S(C)(=O)=O)cc2)c1 [Example 10],≤ 500
11,Cc1cc(Oc2cccnc2)nc(-c2ccc(S(C)(=O)=O)cc2)c1 [Example 11],≤ 500
12,C=CCNc1cc(C(F)(F)F)cc(-c2ccc(S(C)(=O)=O)cc2)n1 [Example 12],≤ 500
13,Cc1cc(Nc2ccccc2Cl)nc(-c2ccc(S(C)(=O)=O)cc2)c1 [Example 13],≤ 500
14,Cc1cc(NCc2cc(F)cc(F)c2)nc(-c2ccc(S(C)(=O)=O)cc2)c1 [Example 14],≤ 500
15,Cc1cc(NCc2cccnc2)nc(-c2ccc(S(C)(=O)=O)cc2)c1 [Example 15],≤ 500
16,COc1ccc(Nc2cc(C(F)(F)F)cc(-c3ccc(S(C)(=O)=O)cc3)n2)cc1 [Example 16],≤ 500
17,Cc1cc(NC2CCCCC2)nc(-c2ccc(S(C)(=O)=O)cc2)c1 [Example 17],≤ 500
18,CCCCNc1cc(C(F)(F)F)cc(-c2ccc(S(C)(=O)=O)cc2)n1 [Example 18],≤ 500
19,CC(C)CNc1cc(C(F)(F)F)cc(-c2ccc(S(C)(=O)=O)cc2)n1 [Example 19],≤ 500
20,COc1ccc(CNc2cc(C)cc(-c3ccc(S(C)(=O)=O)cc3)n2)cc1 [Example 20],≤ 500
21,Cc1cc(NCc2ccc(F)cc2)nc(-c2ccc(S(C)(=O)=O)cc2)c1 [Example 21],≤ 500
22,Cc1ccc(CNc2cc(C(F)(F)F)cc(-c3ccc(S(C)(=O)=O)cc3)n2)o1 [Example 22],≤ 500
23,CCCCNc1cc(C)cc(-c2ccc(S(C)(=O)=O)cc2)n1 [Example 23],≤ 500

row,Compound,IC50 [nM]
1,Cc1cc(NCc2ccco2)nc(-c2ccc(S(C)(=O)=O)cc2)c1 [Example 24],≤ 500
2,Cc1ccc(CNc2cc(C)cc(-c3ccc(S(C)(=O)=O)cc3)n2)cc1 [Example 25],≤ 500
3,CS(=O)(=O)c1ccc(-c2cc(C(F)(F)F)cc(NC3CCCC3)n2)cc1 [Example 26],≤ 500
4,Cc1cc(NCc2ccncc2)nc(-c2ccc(S(C)(=O)=O)cc2)c1 [Example 27],≤ 500
5,Cc1cc(NCc2ccccn2)nc(-c2ccc(S(C)(=O)=O)cc2)c1 [Example 28],≤ 500
6,CCOc1ccc(CNc2cc(C)cc(-c3ccc(S(C)(=O)=O)cc3)n2)cc1 [Example 30],≤ 500
7,Cc1cc(NCC(C)C)nc(-c2ccc(S(C)(=O)=O)cc2)c1 [Example 31],≤ 500
8,Cc1cc(Nc2ccc(F)cc2)nc(-c2ccc(S(C)(=O)=O)cc2)c1 [Example 43],≤ 500
9,Cc1cc(NCc2cccs2)nc(-c2ccc(S(C)(=O)=O)cc2)c1 [Example 44],≤ 500
10,CCc1cc(-c2ccc(S(C)(=O)=O)cc2)nc(N(C)Cc2ccccc2)c1 [Example 45],≤ 500
11,CCc1cc(NCC2CCOCC2)nc(-c2ccc(S(C)(=O)=O)cc2)c1 [Example 46],≤ 500
12,CCc1cc(NCC(C)C)nc(-c2ccc(S(C)(=O)=O)cc2)c1 [Example 47],≤ 500
13,Cc1ccc(CNc2cc(C(F)(F)F)cc(-c3ccc(S(C)(=O)=O)cc3)n2)cc1 [Example 48],≤ 500
14,Cc1ccccc1CNc1cc(C(F)(F)F)cc(-c2ccc(S(C)(=O)=O)cc2)n1 [Example 49],≤ 500
15,CS(=O)(=O)c1ccc(-c2cc(C(F)(F)F)cc(NCc3ccccc3Cl)n2)cc1 [Example 50],≤ 500
16,Cc1cnc(CNc2cc(C(F)(F)F)cc(-c3ccc(S(C)(=O)=O)cc3)n2)cn1 [Example 51],≤ 500
17,C[C@H](Nc1cc(C(F)(F)F)cc(-c2ccc(S(C)(=O)=O)cc2)n1)c1ccccc1 [Example 52],≤ 500
18,C[C@@H](Nc1cc(C(F)(F)F)cc(-c2ccc(S(C)(=O)=O)cc2)n1)c1ccccc1 [Example 53],≤ 500
19,"CS(=O)(=O)c1ccc(-c2cc(C(F)(F)F)cc(NC3CCCCC3)n2)cc1 [Example 54, N-cyclohexyl-4-(trifluoromethyl)-6-[4-(methylsulfonyl)phenyl]pyridine-2-amine]",≤ 500
20,COc1ccc(CNc2cc(C(F)(F)F)cc(-c3ccc(S(C)(=O)=O)cc3)n2)cc1 [Example 55],≤ 500
21,Cc1cc(Nc2ccc(C)nc2)nc(-c2ccc(S(C)(=O)=O)cc2)c1 [Example 56],≤ 500
22,Cc1ccc(-c2ccc(S(C)(=O)=O)cc2)nc1NCc1ccccc1 [Example 57],≤ 500
23,Cc1cc(-c2ccc(S(C)(=O)=O)cc2)nc(N(C)Cc2ccccc2)c1C [Example 58],≤ 500

row,Compound,IC50 [nM]
1,Cc1cc(-c2ccc(S(C)(=O)=O)cc2)nc(NCc2ccccc2)c1C [Example 59],≤ 500
2,Cc1cc(-c2ccc(S(C)(=O)=O)cc2)nc(NCC(C)C)c1C [Example 60],≤ 500
3,CN(Cc1ccccc1)c1cccc(-c2ccc(S(C)(=O)=O)cc2)n1 [Example 61],≤ 500
4,Cc1cc(-c2ccc(S(C)(=O)=O)cn2)nc(N(C)Cc2ccccc2)c1 [Example 62],≤ 500
5,Cc1cc(-c2ccc(S(C)(=O)=O)cc2)nc(N2CCCCC2)c1C [Example 66],≤ 500
6,Cc1cc(NCc2ccccc2)nc(-c2ccc(S(C)(=O)=O)c(F)c2)c1 [Example 67],≤ 500
7,Cc1cc(-c2ccc(S(C)(=O)=O)cc2)nc(N(C)Cc2cccc(C)n2)c1 [Example 68],≤ 500
8,CCc1cc(NCc2ccco2)nc(-c2ccc(S(C)(=O)=O)cc2)c1 [Example 69],≤ 500
9,COc1ccc(Nc2cc(C)cc(-c3ccc(S(C)(=O)=O)cn3)n2)cc1 [Example 70],≤ 500
10,CCC(CC)Nc1cc(C)cc(-c2ccc(S(C)(=O)=O)cc2)n1 [Example 74],≤ 500
11,CS(=O)(=O)c1ccc(-c2cccc(NCc3ccccc3)n2)cc1 [Example 75],≤ 500
12,Cc1cc(NCc2ncc[nH]2)nc(-c2ccc(S(C)(=O)=O)cc2)c1 [Example 76],≤ 500
13,Cc1cc(NCc2nccn2C)nc(-c2ccc(S(C)(=O)=O)cc2)c1 [Example 80],≤ 500
14,Cc1cc(NCc2c[nH]nc2C)nc(-c2ccc(S(C)(=O)=O)cc2)c1 [Example 81],≤ 500
15,Cc1cc(NCc2ccn(C)n2)nc(-c2ccc(S(C)(=O)=O)cc2)c1 [Example 82],≤ 500
16,"Cc1cc(NCc2cnn(C)c2)nc(-c2ccc(S(C)(=O)=O)cc2)c1 [Example 83, N-[(1-methyl-1H-pyrazol-4-yl)methyl]-4-methyl-6-[4-(methylsulfonyl)phenyl]pyridine-2-amine]",≤ 500
17,CCc1cc(NCc2ncc[nH]2)nc(-c2ccc(S(C)(=O)=O)cc2)c1 [Example 84],≤ 500
18,Cc1cc(OCc2cc(C)n[nH]2)nc(-c2ccc(S(C)(=O)=O)cc2)c1 [Example 85],≤ 500
19,Cc1cc(OCc2ccnn2C)nc(-c2ccc(S(C)(=O)=O)cc2)c1 [Example 86],≤ 500
20,Cc1cc(NCc2ncnn2C)nc(-c2ccc(S(C)(=O)=O)cc2)c1 [Example 87],≤ 500
21,Cc1cc(OCc2cc(C)on2)nc(-c2ccc(S(C)(=O)=O)cc2)c1 [Example 88],≤ 500

# Reference: patent US7446117B2, “Cox-2 inhibiting pyridine derivatives” (Glaxo Group Limited, priority 2002, dated 2008)
